{"source": "patent US12742284B2", "about": "“Antimicrobial polymer coatings on textiles” (MICROBAN PRODUCTS COMPANY, priority 2022, dated 2023)", "tested_on": "Kp", "assay": "AATCC TM 100 antimicrobial test on treated polyester after home launderings", "conditions": "for AATCC TM 100, Antimicrobial Test result (Kp - log reduction): 1.5% o.w.f. on polyester", "data": [{"smiles": "[Na+].[O-][n+]1ccccc1[S-]", "note": "[Sodium Pyrithione]", "values": [{"measurement": "AATCC TM 100, Antimicrobial Test result (Kp - log reduction)", "setting": "1 HL", "value": 0.5, "unit": "log reduction"}, {"measurement": "AATCC TM 100, Antimicrobial Test result (Kp - log reduction)", "setting": "25 HL", "value": 0, "unit": "log reduction"}, {"measurement": "antimicrobial performance (in words)", "setting": "after one cycle of home laundering", "value": "little efficacy"}, {"measurement": "antimicrobial performance (in words)", "setting": "after twenty-five home launderings", "value": "did not have antimicrobial performance"}]}]}
